We go through 2 compounds from ChEMBL document CHEMBL1131720, “Phosphofurylalanine, a stable analog of phosphohistidine” (Bioorg Med Chem Lett, 1999).

Data set [1] is filed under the species Equus caballus. The data set can be described thus: Kinetic resolution using horse liver esterase, 3 U.mL e-1 at 48 hr expressed as percent ee unreacted. Type of data set: ADME, organism-based. Conditions: in vivo.
Data set [2] can be described thus: Kinetic resolution using papain, 170 U.mL e-1 at 24 hr expressed as percent ee unreacted. Format: ADME.
Data set [3] is filed under the species Sus scrofa. Kind of data set: Kinetic resolution using pig liver esterase, 240 U.mL e-1 at 48 hr expressed as percent ee unreacted. To be noted: in vivo. Type of data set: ADME, organism-based.
Data set [4] in a line: Kinetic resolution using alpha-chymotrypsin, 375 U.mL e-1 at 72 hr expressed as percent ee unreacted. Format: ADME.

For the compound `CCOP(=O)(OCC)c1coc(C[C@H](NC(=O)OC(C)(C)C)C(=O)O)c1`, the Unreacted drug worked out at 50% in data set [1], 75% in data set [2] and 60% in data set [3].

In the case of `CCOC(=O)[C@@H](Cc1cc(P(=O)(OCC)OCC)co1)NC(=O)OC(C)(C)C`, the Unreacted drug was 60% in data set [1], 0% in data set [4], over 96% in data set [2] and 70% in data set [3].
